Where “and” joins values, the source holds several entries; their conditions need not be identical. Equal entries are not always repeated.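 Following 48 hours of exposure in 96-well plates, responses at five concentrations were used to interpolate endpoints linearly. GI50: concentration for 50% inhibition of growth. Definition used: TGI = concentration required for complete inhibition of growth.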
Legend:
Assay in all cases: NCI tumour cell line growth inhibition, 48 h
RXF-631 renal = tested on: RXF-631 renal
LXFL 529 NSCLC = tested on: LXFL 529 NSCLC
P388/ADR leukemia = tested on: P388/ADR leukemia
SN12K1 renal = tested on: SN12K1 renal
DMS 114 small cell lung = tested on: DMS 114 small cell lung

SMILES	TGI (P388/ADR leukemia)	TGI (SN12K1 renal)	TGI (DMS 114 small cell lung)	further results
C=CCc1cc(-c2cc(CC=C)c(O)c(CN(CCCl)CCCl)c2)cc(CN(CCCl)CCCl)c1O				TGI (RXF-631 renal): 39.3 µM; TGI (LXFL 529 NSCLC): 29.7 µM
CN1C(=O)c2ccccc2NC(=O)c2cnn(C)c21	> 100 µM	> 100 µM	> 100 µM	
C[n+]1c2ccccc2c(CNc2ccc(S(=O)(=O)N=C(N)N)cc2)c2ccccc21			20.8 µM	
O=C(O)CCCCCCC[C@@H]1S[C@H]1CCCCCCO	> 100 µM	> 100 µM	> 100 µM	
CC1=C(C)C(=O)O[C@@H]([C@](C)(O)[C@]2(O)CC[C@@]3(O)[C@@H]4C[C@H]5O[C@]56[C@@H](O)C=CC(=O)[C@]6(C)[C@H]4CC[C@]23C)C1	98.8 µM and 250 µM	6.39 µM and 21.6 µM	0.588 µM and 0.567 µM	GI50 (P388/ADR leukemia): 2.5 µM and 0.487 µM; GI50 (SN12K1 renal): 1.4 µM and 5.89 µM
Cc1cc(NC(=S)Nc2ccccc2)c(NC(=S)Nc2ccccc2)cc1C	19.1 µM	> 59.1 µM		
N#C[S-].[Nd+3].c1cnc2c(c1)ccc1cccnc12.c1cnc2c(c1)ccc1cccnc12.c1cnc2c(c1)ccc1cccnc12			4.67 µM	GI50 (LXFL 529 NSCLC): 1.84 µM; TGI (LXFL 529 NSCLC): 14.8 µM; GI50 (DMS 114 small cell lung): 1.59 µM

Reference: PubChem BioAssay (NCI)
